# Experimental data reported in patent publication US6660692B1, “Herbicidal compositions comprising picolinafen” (Aventis CropScience S.A., priority 1999, dated 2003).
# Tests used:
# Type in all cases: in vivo
# Conditions in all cases: 12 days after treatment
# Avena fatua (AVEFA) [1] = test: Example 3 glasshouse trial post-emergence in wheat, (I) and isoproturon
# Procedure: (§1) A glasshouse trial was carried out post-emergence in wheat using a tank mixture comprising a phenoxypicolinamide derivative of formula I (at 1, 4 and 16 g/ha) and isoproturon (at 125, 250 and 500 g/ha) which was sprayed on the following weed species:
# (§2) Alopecurus myosuroides (ALOMY), Setaria viridis (SETVI), Avena fatua (AVEFA), Echinochloa crus-galli (ECHCG) and Galium aparine (GALAP).
# [2] = test system: Alopecurus myosuroides (ALOMY); test: as above
# Procedure: as §1, §2
# Galium aparine (GALAP) [3] = test: as above
# Procedure: as §1, §2
# [4] = test system: Echinochloa crus-galli (ECHCG); test: as above
# Procedure: as §1, §2
# Setaria viridis (SETVI) [5] = test: as above
# Procedure: as §1, §2
# Avena fatua (AVEFA) [6] = test: Example 4 glasshouse trial post-emergence in wheat, (I) and bromoxynil
# Procedure: (§3) A glasshouse trial was carried out post-emergence in wheat using a tank mixture comprising a phenoxypicolinamide derivative of formula I (at 1, 4 and 16 g/ha) and bromoxynil (at 12.5, 50 and 200 g/ha) which was sprayed on the following weed species:
# (§4) Setaria viridis (SETVI), Avena fatua (AVEFA), Echinochloa crus-galli (ECHCG) and Galium aparine (GALAP).
# Galium aparine (GALAP) [7] = test: as above
# Procedure: as §3, §4
# [8] = test system: Echinochloa crus-galli (ECHCG); test: as above
# Procedure: as §3, §4
# Setaria viridis (SETVI) [9] = test: as above
# Procedure: as §3, §4
# [10] = test system: Alopecurus myosuroides (ALOMY); test: Example 5 glasshouse trial post-emergence in wheat, (I) and isoxaflutole
# Procedure: (§5) A glasshouse trial was carried out post-emergence in wheat using a tank mixture comprising a phenoxypicolinamide derivative of formula I (at 1, 4 and 16 g/ha) and isoxaflutole (at 8, 16 and 32 g/ha) which was sprayed on the following weed species:
# (§6) Alopecurus myosuroides (ALOMY) and Galium aparine (GALAP).
# Galium aparine (GALAP) [11] = test: as above
# Procedure: as §5, §6
structure (smiles),measurement,setting,value
"CC(C)c1ccc(NC(=O)N(C)C)cc1 [Compound (II), 3-(4-isopropylphenyl)-1,1-dimethylurea]",% Weed Control AVEFA,Avena fatua (AVEFA) [1]; 125 g ai/ha,0%
same,% Weed Control AVEFA,Avena fatua (AVEFA) [1]; 250 g ai/ha,30%
same,% Weed Control AVEFA,Avena fatua (AVEFA) [1]; 500 g ai/ha,30%
same,% Weed Control ALOMY,[2]; 125 g ai/ha,0%
same,% Weed Control ALOMY,[2]; 250 g ai/ha,0%
same,% Weed Control ALOMY,[2]; 500 g ai/ha,20%
same,% Weed Control GALAP,Galium aparine (GALAP) [3]; 125 g ai/ha,0%
same,% Weed Control GALAP,Galium aparine (GALAP) [3]; 250 g ai/ha,0%
same,% Weed Control GALAP,Galium aparine (GALAP) [3]; 500 g ai/ha,0%
same,% Weed Control ECHCG,[4]; 125 g ai/ha,10%
same,% Weed Control ECHCG,[4]; 250 g ai/ha,70%
same,% Weed Control ECHCG,[4]; 500 g ai/ha,70%
same,% Weed Control SETVI,Setaria viridis (SETVI) [5]; 125 g ai/ha,50%
same,% Weed Control SETVI,Setaria viridis (SETVI) [5]; 250 g ai/ha,70%
same,% Weed Control SETVI,Setaria viridis (SETVI) [5]; 500 g ai/ha,100%
"N#Cc1cc(Br)c(O)c(Br)c1 [Compound (III), 3,5-dibromo-4-hydroxybenzonitrile]",% Weed Control AVEFA,Avena fatua (AVEFA) [6]; 12.5 g ai/ha,0%
same,% Weed Control AVEFA,Avena fatua (AVEFA) [6]; 50 g ai/ha,0%
same,% Weed Control AVEFA,Avena fatua (AVEFA) [6]; 200 g ai/ha,10%
same,% Weed Control GALAP,Galium aparine (GALAP) [7]; 12.5 g ai/ha,0%
same,% Weed Control GALAP,Galium aparine (GALAP) [7]; 50 g ai/ha,80%
same,% Weed Control GALAP,Galium aparine (GALAP) [7]; 200 g ai/ha,100%
same,% Weed Control ECHCG,[8]; 12.5 g ai/ha,0%
same,% Weed Control ECHCG,[8]; 50 g ai/ha,0%
same,% Weed Control ECHCG,[8]; 200 g ai/ha,20%
same,% Weed Control SETVI,Setaria viridis (SETVI) [9]; 12.5 g ai/ha,0%
same,% Weed Control SETVI,Setaria viridis (SETVI) [9]; 50 g ai/ha,20%
same,% Weed Control SETVI,Setaria viridis (SETVI) [9]; 200 g ai/ha,20%
"CS(=O)(=O)c1cc(C(F)(F)F)ccc1C(=O)c1cnoc1C1CC1 [Compound (IV), 5-cyclopropyl-4-(2-methylsulphonyl-4-trifluoromethyl)-benzoylisoxazole]",% Weed Control ALOMY,[10]; 8 g ai/ha,10%
same,% Weed Control ALOMY,[10]; 16 g ai/ha,20%
same,% Weed Control ALOMY,[10]; 32 g ai/ha,40%
same,% Weed Control GALAP,Galium aparine (GALAP) [11]; 8 g ai/ha,60%
same,% Weed Control GALAP,Galium aparine (GALAP) [11]; 16 g ai/ha,60%
same,% Weed Control GALAP,Galium aparine (GALAP) [11]; 32 g ai/ha,80%
"O=C(Nc1ccc(F)cc1)c1cccc(Oc2cccc(C(F)(F)F)c2)n1 [(I), picolinafen]",% Weed Control AVEFA,Avena fatua (AVEFA) [6]; 1 g ai/ha,10%
same,% Weed Control AVEFA,Avena fatua (AVEFA) [6]; 4 g ai/ha,20%
same,% Weed Control AVEFA,Avena fatua (AVEFA) [6]; 16 g ai/ha,40%
same,% Weed Control GALAP,Galium aparine (GALAP) [7]; 1 g ai/ha,10%
same,% Weed Control GALAP,Galium aparine (GALAP) [7]; 4 g ai/ha,40%
same,% Weed Control GALAP,Galium aparine (GALAP) [7]; 16 g ai/ha,90%
same,% Weed Control ECHCG,[8]; 1 g ai/ha,10%
same,% Weed Control ECHCG,[8]; 4 g ai/ha,10%
same,% Weed Control ECHCG,[8]; 16 g ai/ha,40%
same,% Weed Control SETVI,Setaria viridis (SETVI) [9]; 1 g ai/ha,10%
same,% Weed Control SETVI,Setaria viridis (SETVI) [9]; 4 g ai/ha,30%
same,% Weed Control SETVI,Setaria viridis (SETVI) [9]; 16 g ai/ha,70%
same,% Weed Control AVEFA,Avena fatua (AVEFA) [1]; 1 g ai/ha,10%
same,% Weed Control AVEFA,Avena fatua (AVEFA) [1]; 4 g ai/ha,20%
same,% Weed Control AVEFA,Avena fatua (AVEFA) [1]; 16 g ai/ha,40%
same,% Weed Control ALOMY,[2]; 1 g ai/ha,10%
same,% Weed Control ALOMY,[2]; 4 g ai/ha,10%
same,% Weed Control ALOMY,[2]; 16 g ai/ha,30%
same,% Weed Control GALAP,Galium aparine (GALAP) [3]; 1 g ai/ha,10%
same,% Weed Control GALAP,Galium aparine (GALAP) [3]; 4 g ai/ha,40%
same,% Weed Control GALAP,Galium aparine (GALAP) [3]; 16 g ai/ha,90%
same,% Weed Control ECHCG,[4]; 1 g ai/ha,10%
same,% Weed Control ECHCG,[4]; 4 g ai/ha,10%
same,% Weed Control ECHCG,[4]; 16 g ai/ha,40%
same,% Weed Control SETVI,Setaria viridis (SETVI) [5]; 1 g ai/ha,10%
same,% Weed Control SETVI,Setaria viridis (SETVI) [5]; 4 g ai/ha,30%
same,% Weed Control SETVI,Setaria viridis (SETVI) [5]; 16 g ai/ha,70%
same,% Weed Control ALOMY,[10]; 1 g ai/ha,10%
same,% Weed Control ALOMY,[10]; 4 g ai/ha,10%
same,% Weed Control ALOMY,[10]; 16 g ai/ha,30%
same,% Weed Control GALAP,Galium aparine (GALAP) [11]; 1 g ai/ha,10%
same,% Weed Control GALAP,Galium aparine (GALAP) [11]; 4 g ai/ha,40%
same,% Weed Control GALAP,Galium aparine (GALAP) [11]; 16 g ai/ha,90%
